Several values for one entry are separate records, joined by “and”; a condition that tells them apart may be missing. Equal values may be shown once. Read-outs that look alike come from different tables or passages of the source.

Assay [1] deals with Human Leukocyte Lipoxygenase. The assay is described as follows: Human Leukocyte Lipoxygenase Assay (LDA-H). The class given is biochemical. The protocol: Whole blood is collected from normal volunteers and spun in a refrigerated centrifuge for four minutes at 1°-6° C. at 3800 g. The buffy coat is manually separated and washed twice with chilled 0.83% NH4 Cl and centrifuged at 1000 RPM for ten minutes at 4° C. The white cell is suspended in culture media-EMEM supplemented with 6% Agamma human serum, tricine buffer, and neomycin and recentrifuged at 1000 g to yield a pellet containing the leukocytes used for the preparation of the acetone pentane powder.
The acetone-pentane powder is prepared utilizing a modification of the procedure reported for human platelet lipoxygenase. See Siegel, et al, Arachidonate Metabolism via Lipoxygenase and 12-L-hydro-peroxy-5 Eicosatetraenoic Acid Peroxidase Sensitive to Antiinflammatory Drugs, Proc. Natl. Acad. Sci., U.S.A. 77:308, 1980 and D. P. Wallach and V. R. Brown, A Novel Preparation of Human Platlet Lipoxygenase, Biochem. Biophys. Acta. 663:361, 1981. Buffy coat prepared above is resuspended in 5-7 volumes of cold 0.1M Tris buffer, pH 7.4 containing 0.154M NaCl. The suspension is centrifuged at 13,300 g for ten minutes at 4° C. The resultant pellet is retained, resuspended in five volumes of cold acetone, recentrifuged at 13,300 g and resuspended in five volumes of cold pentane. The pentane suspension is centrifuged for ten minutes at 13,300 g to give a pellet which is dried in the cold under vacuum with periodic pulverization. The dry powder is stable for several weeks when stored at -80° C.
Enzyme stock solution is prepared in the following manner. About 15 mg of the acetone-pentane powder is suspended in 4 ml of cold tris buffer (0.1M, pH 7.4), allowed to stand for five minutes, and homogenized thoroughly. The homogenate is sonicated three times for 15 seconds each time, diluted to 7 ml with cold tris buffer (0.1M, pH 7.4), and centrifuged at 4° C. for 60 minutes at 13,300 g. The supernatent is retained and diluted to a total of 10 ml with cold tris buffer (0.1M, pH 7.4) to give the stock enzyme solution. Additional dilutions of 2-50 fold are done as necessary to locate optimal enzyme reaction rate in the assay described below.
Substrate solution is prepared at 100 μM or 1.0 μM concentrations of arachidonic acid or linoleic acid in 0.1M tris buffer, pH 9.0 containing 20% ethanol.
The enzyme reaction is followed spectrophotometrically by the appearance of a conjugated diene product at 234 nm. The reaction is monitored at 24° C. using a Gilford Model 2600 spectrophotometer. […] The effects of inhibitors on the reaction are compared with control reactions run under indentical conditions. Routinely, each compounds of the present invention is incubated with the enzyme for five minutes prior to addition of substrate to initiate the reaction. Inhibition expressed as IC50 as molar concentration of the compound required to reduce reaction rate to 50% control.

Assay [2] addresses T1, human leukocyte 5-lipoxygenase (Homo sapiens, UniProt P09917).
T1 construct: endogenous in cells; host or cells: leukocytes from fresh human blood
T1 sequence (P09917 1-674): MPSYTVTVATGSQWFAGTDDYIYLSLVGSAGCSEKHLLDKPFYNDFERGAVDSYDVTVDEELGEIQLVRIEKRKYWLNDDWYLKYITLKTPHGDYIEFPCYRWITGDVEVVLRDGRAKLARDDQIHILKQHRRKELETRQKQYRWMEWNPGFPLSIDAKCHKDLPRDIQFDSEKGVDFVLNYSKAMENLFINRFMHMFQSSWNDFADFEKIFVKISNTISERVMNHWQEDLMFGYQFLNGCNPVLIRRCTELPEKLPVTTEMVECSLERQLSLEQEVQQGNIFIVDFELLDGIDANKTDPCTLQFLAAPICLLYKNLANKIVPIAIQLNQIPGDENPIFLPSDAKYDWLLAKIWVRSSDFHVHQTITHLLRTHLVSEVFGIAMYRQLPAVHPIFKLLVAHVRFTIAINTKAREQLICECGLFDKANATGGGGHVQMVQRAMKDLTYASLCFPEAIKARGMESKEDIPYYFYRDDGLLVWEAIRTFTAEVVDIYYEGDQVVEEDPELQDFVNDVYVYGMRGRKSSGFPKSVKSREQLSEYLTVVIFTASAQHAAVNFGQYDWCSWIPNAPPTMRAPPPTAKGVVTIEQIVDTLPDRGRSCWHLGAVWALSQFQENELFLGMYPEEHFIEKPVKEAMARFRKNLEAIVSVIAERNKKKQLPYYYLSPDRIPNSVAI
The assay is described as follows: 5-Lipoxygenase assay in human leukocytes, formation of 5-HETE (5LOA; 5LOA1 or 5LOA2 not specified). The class given is cell-based. The source says:
To Evaluate the Effect of Each Compounds as a 5-Lipoxygenase Inhibitor in Comparison to Standard Reference Agents in Human Leukocytes (5LOAl)
The purpose of this assay is to evaluate the activity of each compound as an inhibitor of human leukocyte 5-lipoxygenase.
Arachidonic acid and calcium ionophore A23l87 are obtained from Sigma (St. Louis, Mo.). Silica gel plates, GF are obtained from Analtech (Newark, Del.). Arachidonic acid, (1-^14 C) and 5-HETE (^3 H), 5 (S)-hydroxy-6-trans, 8,11,14-cis eicosatetraenoic acid, are obtained from New England Nuclear (Boston, Mass.). Six percent Dextran-70 in 0.9% NaCl is obtained from Cutter Labs (Berkeley, Calif.).
Fresh blood from normal adult men who had not received any drugs for at least the previous five days is obtained by the Community Research Clinic (WL/PD) using venipuncture and collected into heparinized vacuotainer tubes. To every 100 ml of pooled blood is added 25 ml of dextran solution (6% dextran -70 in 0.9% sodium chloride containing 3% dextrose) and this is mixed gently in a plastic cylinder. The mixture is left to stand at room temperature for at least 90 minutes. The upper layer which is rich in leukocytes and platelets is then carefully decanted into 50 ml plastic tubes and centrifuged at about 100×g for eight minutes in an IEC centrifuge and rotor number 269 (about 600 rpm). The supernatant fluid is discarded and the pellet is resuspended in 10 ml of 0.87% ammonium chloride for exactly two minutes. This procedure is to lyse completely contaminating red blood cells. Leukocytes are then separated by centrifugation for ten minutes. The pellet is washed three times by suspension in 20 ml PBS (sodium chloride, 7.1 g; Na2 HPO4, 1.15 g; KH2 PO4, 0.2 g, and KCl, 0.2 g/L) and centrifuged as before. The final pellet is suspended in PBS containing 0.87 mM CaCl2. Viability of the cells is then checked using trypan blue exclusion method and is found to be over 90%.
Leukocyte cells in suspension (0.98 ml) are incubated with or without test compounds for five minutes at 37° C. in a shaking water bath. At this time a 17 μl mixture is prepared per 1 ml of cell suspension: 100 mM arachidonic acid, 1 μl, 0.05 μCi ^14 C-arachidonic acid in 5 .rho.l; 1 mM calcium ionophore A23187, 10 μl (1). This mixture is added and the incubation continued for five minutes. The reaction is stopped by adding four volumes of absolute ethanol and the mixture is kept in ice for 30 minutes. The floculated precipitate is separated by centrifugation at about 37,000×g for 20 minutes (Beckman Instruments rotor number 40). The alcohol extract is taken to dryness under a stream of nitrogen and the residue is dissolved in 100-200 μl absolute ethanol. At the time any turbidity is removed by centrifugation. An aliquot (25-50 μl) is applied onto 20×20 cm silica gel TLC plate and developed using the following solvent system: diethyl ether, petroleum ether (2040° C.), acetic acid (50:50: 1 v/v). Zones of 1 cm apart are scraped from the TLC plate and transferred to mini-vials. Methanol (0.5 ml) is added to dissolve the radioactivity adsorbed to the silica gel and scintillation fluid (H.P., Beckman), 5 ml is then added and vials are counted in a liquid scintillation counter. A sample of ^3 H-5-HETE is applied and used for the identification of the formed 5-HETE.
Total radioactivity in the test as well as the control samples are normalized and the amount of 5-HETE present is calculated accordingly.
IC50 values are defined as the concentrations of test agents which caused a 50% inhibition of the formation of 5-HETE as compared to control and are determined by inspection of the concentration-response curves.
The formation of 5-HETE in human leukocytes is considered a measure of 5-lipoxygenase activity. The protocol is described in the following.
Fresh heparinized or EDTA treated human blood is mixed with 6% dextran-3% dextrose in isotonic saline in the ratio 0.25 ml dextran solution per 1.0 ml blood. […]

On to `COc1ccc(CCc2ccc(NC(=O)C(=O)C3=C(O)c4ccccc4S(=O)(=O)C3)cc2)cc1OC` [Example 3, N-[4-[2-(3,4-Dimethoxyphenyl)ethyl)phenyl]-4-hydroxy-α-oxo-2H-1-benzothiopyran-3-acetamide, 1,1-dioxide], for which the “LDAH, % Inhibition” value in assay [1] (1.00 E -5 M) and in assay [1] (2.50 E -5 M) was 0.0% in each case.
As to `O=C(Nc1ccc(Cc2ccc(O)c(O)c2)cc1)C1CS(=O)(=O)c2ccccc2C1=O` (stereo not shown) [Example 14, N-[4-[(3,4-Dihydroxyphenyl)methyl]phenyl]-3,4-dihydro-4-oxo-2H-1-benzothiopyran-3-carboxamide, 1,1-dioxide], in assay [1] (2.50 E -5 M), the “LDAH, % Inhibition” value is 0.0%.
In the case of `O=C(Nc1ccc(CCCc2ccc(O)c(O)c2)cc1)C1CS(=O)(=O)c2ccccc2C1=O` (stereo not shown) [Example 22], in assay [1] (conjugated diene at 234 nm, pH 9.0, 24 °C, read-out: LDAH, concentration for 50% inhibition (IC)), the IC50 is 13 µM.
As for `O=C(Nc1ccc(CCCCc2ccc(O)c(O)c2)cc1)C1CS(=O)(=O)c2ccccc2C1=O` (stereo not shown) [Example 23, N-[4-[4-(3,4-Dihydroxyphenyl)butyl]phenyl]-3,4-dihydro-4-oxo-2H-1-benzothiopyran-3-carboxamide, 1,1-dioxide], in assay [1] (2.50 E -5 M), the “LDAH, % Inhibition” value is given as 0.0%.
With `COc1ccccc1CCc1ccc(NC(=O)C2=C(O)c3ccccc3S(=O)(=O)C2)cc1` [Example 37], the “LDAH, % Inhibition” value in assay [1] (8.00 E -5 M) stood at 0.0%.
As to `Cc1ccccc1CCc1ccc(NC(=O)C2=C(O)c3ccccc3S(=O)(=O)C2)cc1` [Example 43], the “LDAH, % Inhibition” value in assay [1] (8.00 E -5 M) is 0.0%.
The same measure, in the same setting: next, `Cc1ccc(CCc2ccc(NC(=O)C3CS(=O)(=O)c4ccccc4C3=O)cc2)cc1` (stereo not shown) [Example 45]: 0.0%; `CCOC(=O)c1ccc(CCc2ccc(NC(=O)C3CS(=O)(=O)c4ccccc4C3=O)cc2)cc1` (stereo not shown) [Example 47, 4-[2-[4-[[(3,4-Dihydro-4-oxo-2H-1-benzothiopyran-3-yl)carbonyl]amino]phenyl]ethyl]benzoic acid, ethyl ester, 1,1-dioxide]: 0.0%.
As to `CCCCOc1ccc(CCc2ccc(NC(=O)C3CS(=O)(=O)c4ccccc4C3=O)cc2)cc1` (stereo not shown) [Example 48], the “LDAH, % Inhibition” value in assay [1] (2.50 E -5 M) is 0.0%.
As to `COc1ccc(CCc2ccc(NC(=O)C3=C(O)c4ccccc4S(=O)(=O)N3C)cc2)cc1OC` [Example 83, N-[4-[2-(3,4-Dimethoxyphenyl)ethyl)phenyl]-4-hydroxy-2-methyl-2H-1,2-benzothiazine-3-carboxamide, 1,1-dioxide], the results for the “5LOA, % Inhibition” value in assay [2] and in assay [2] (2.00 E 0 M) were “+1.6%” and 9.2%, respectively.
With `O=C(Nc1ccc(CCc2ccc(Cl)c(Cl)c2)cc1)C(=O)c1oc2cc3ccccc3cc2c1O` [Example 113, Naphtho[2,3-b]furan-2-acetamide, N-[4-[2-(3,4-dichlorophenyl)ethyl]phenyl]-3-hydroxy-α-oxo], the results for the “5LOA, % Inhibition” value in assay [2] (1.00 E -5 M), in assay [2] (2.00 E -5 M) and in assay [2] (5.00 E -6 M) were 15.3%, 33.7% and 6.3%, respectively.
Regarding `O=C(Nc1ccc(CCc2ccc(Cl)c(Cl)c2)cc1)c1sc2ccccc2c1O` [Example 144], the “5LOA, % Inhibition” value in assay [2] (2.00 E -5 M) was 42.5%; in assay [2] (5.00 E -6 M), 36.0%.
Regarding `O=C(Nc1ccc(CCc2cc(C(F)(F)F)cc(C(F)(F)F)c2)cc1)c1sc2ccccc2c1O` [Example 148, Benzo[b]thiophene-2-carboxamide, N-[4-[2-[3,5-bis-(trifluoromethyl)phenyl]ethyl]phenyl]-3-hydroxy], the “5LOA, % Inhibition” value in assay [2] (2.00 E -5 M) is 19.0%; in assay [2] (5.00 E -6 M) it was “+7.3%”.
As for `CCCCCCCCCCc1ccc(NC(=O)C(=O)C2=C(O)c3ccccc3OC2)cc1` [Example 151, N-(4-Decylphenyl)-4-hydroxy-α-oxo-2H-1-benzopyran-3-acetamide], the “5LOA, % Inhibition” value in assay [2] (1.00 E -5 M) is on record as 13.9%; in assay [2] (4.00 E -5 M) it was 18.0%.
Take `COc1ccc(CCc2ccc(NC(=O)C(=O)C3=C(O)c4ccccc4OC3)cc2)cc1OC` [Example 152]: the “5LOA, % Inhibition” value in assay [2] (1.00 E -5 M) was 23.0%; in assay [2] (2.00 E -5 M), 38.1% and 33.9%; in assay [2] (4.00 E -5 M), 76.3%; in assay [2] (8.00 E -5 M) it was 79.2%.
With `O=C(Nc1ccc(CCc2ccc(Cl)c(Cl)c2)cc1)C(=O)C1=C(O)c2ccccc2OC1` [Example 155, 2H-1-Benzopyran-3-acetamide, N-[4-[2-(3,4-dichlorophenyl)ethyl]phenyl]-4-hydroxy-α-oxo], the “5LOA, % Inhibition” value in assay [2] (2.00 E -5 M) is recorded as 10.1%; in assay [2] (4.00 E -5 M) it was 2.3%; in assay [2] (5.00 E -6 M), “+7.6%”.

These data come from patent US4921871A, “Enolamides, pharmaceutical compositions and methods of use thereof for treating inflammation” (Warner-Lambert Company, priority 1987, dated 1990).
